Results as given in patent US7811760B2, “Vector and method for detecting the change in transcription amount” (priority 2006, dated 2010).

Target: T1, aryl hydrocarbon receptor (Rattus norvegicus, UniProt P41738, Q794H)
T1 construct: The SD-line rat AhR gene-coding region was amplified from the reverse-transcribed sample by means of PCR; V5-His (C-terminal tag of vector pcDNA4/V5-His B); expressed in transfected cells; host or cells: mouse neuroblastoma Neuro2a, transient transfection with LIPOFECTAMINE 2000
T1 sequence (P41738 10-853 Q794H): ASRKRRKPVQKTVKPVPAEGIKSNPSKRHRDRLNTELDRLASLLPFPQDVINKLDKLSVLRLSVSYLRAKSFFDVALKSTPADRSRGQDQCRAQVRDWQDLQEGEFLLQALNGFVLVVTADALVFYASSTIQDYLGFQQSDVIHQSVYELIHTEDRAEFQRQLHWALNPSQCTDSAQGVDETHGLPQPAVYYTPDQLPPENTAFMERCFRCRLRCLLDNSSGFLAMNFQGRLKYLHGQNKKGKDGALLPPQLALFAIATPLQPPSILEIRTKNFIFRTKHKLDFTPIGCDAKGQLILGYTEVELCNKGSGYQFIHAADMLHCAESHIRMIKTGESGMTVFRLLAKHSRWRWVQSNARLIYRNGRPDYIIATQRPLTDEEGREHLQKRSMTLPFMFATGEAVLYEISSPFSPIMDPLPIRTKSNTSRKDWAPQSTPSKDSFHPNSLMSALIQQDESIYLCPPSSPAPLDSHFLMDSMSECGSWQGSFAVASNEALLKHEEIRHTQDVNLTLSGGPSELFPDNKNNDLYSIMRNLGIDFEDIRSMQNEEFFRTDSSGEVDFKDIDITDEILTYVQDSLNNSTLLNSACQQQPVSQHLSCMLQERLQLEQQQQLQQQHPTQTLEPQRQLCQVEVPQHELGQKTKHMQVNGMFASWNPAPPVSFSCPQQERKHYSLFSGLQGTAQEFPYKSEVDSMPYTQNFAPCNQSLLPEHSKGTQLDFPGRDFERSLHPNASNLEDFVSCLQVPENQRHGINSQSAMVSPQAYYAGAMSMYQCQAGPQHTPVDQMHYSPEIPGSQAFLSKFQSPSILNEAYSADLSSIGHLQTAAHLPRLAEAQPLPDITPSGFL
Test: Reporter gene assay in Neuro2a with pTHE100/Luc, pTHE100×3/Luc and pTHE100×5/Luc (tandem copies of SEQ ID No: 3)
Type: cell-based, SD-line rat
Text: The terminal of the “region of SEQ ID No: 3 amplified by PCR in Example 6” was phosphorylated with 5′-polynucleotide kinase (Takara Bio Inc.), and then, the regions of SEQ ID No: 3 were ligated in tandem with each other by using a ligation kit (Toyobo). The ligated DNA fragment was digested with restriction enzymes KpnI and NheI, and subjected to agarose gel electrophoresis. DNA fragment consisting of three copies of the regions of SEQ ID No: 3 linked in tandem and DNA fragment consisting of five copies of the regions of SEQ ID No: 3 linked in tandem were excised from the gel based on their molecular weight, and purified with a QIAQUICK Gel Extraction Kit. These DNA fragments were digested with KpnI and NheI, and incorporated into a vector pTHE100/Luc containing no region of SEQ ID No: 3, to prepare a recombinant vector pTHE100×3/Luc containing three tandem copies of the regions of SEQ ID No: 3, and a recombinant vector pTHE100×5/Luc containing five tandem copies of the regions of SEQ ID No: 3 (FIG. 7A). pTH100/Luc, pTHE100×3/Luc, and pTHE100×5/Luc were introduced into Neuro2a by a method similar to that in Example 3. The obtained cell was exposed to 10 nM TCDD, and then, the change in the expression amount of the reporter gene was examined (FIG. 7B).
Further, the transcriptional response to the TCDD concentration and the transcriptional response to dioxin congeners were evaluated by using the pTHE100×3/Luc. The transcriptional response to the TCDD concentration was determined by a method similar to that in Example 3, specifically, by incorporating the vector pTHE100×3/Luc into Neuro2a, exposing the obtained cell to 1 to 10,000 μM of TCDD, and measuring the change in the expression amount of the reporter gene. […] On the other hand, the transcriptional response to dioxin congeners was determined by a method similar to that in Example 3, specifically, by incorporating the vector pTHE100×3/Luc into Neuro2a, exposing the obtained cell to eight kinds of dioxin congeners including TCDD, and measuring the activity of these congeners on transcriptional regulation. […]

SMILES: Clc1cc2c(cc1Cl)Oc1cc(Cl)c(Cl)cc1O2 [TCDD, 2,3,7,8-tetrachlorodibenzo-p-dioxine]
- increase in the activity of the test substance on transcriptional regulation, by number of copies of SEQ ID No: 3 (10 nM TCDD, pTH100/Luc, pTHE100×5/Luc): highest with the vector pTHE100×3/Luc
- influence of dioxin congeners on transcriptional regulation (eight kinds of dioxin congeners tested): exerted influence on transcriptional regulation
- expression amount of the reporter gene versus TCDD concentration (exposure 1 to 10,000 μM of TCDD (so in the source)): increased statistically significantly with the increase in TCDD concentration up to 10 μM
